Like-named read-outs stand apart in the source and are kept apart here.
Legend:
[1] = effect of food intake on pharmacokinetics; format: in vivo; settings: human blood plasma
Text: Further, in accordance with the invention the person skilled in the art understands that food intake prior to administration of the crystalline mono mesylate monohydrate salt of N-[5-(aminosulfonyl)-4-methyl-1,3-thiazol-2-yl]-N-methyl-2-[4-(2-pyridinyl)phenyl]-acetamide of a subject may influence positively the in vivo PK/PD profile of the resultant free base of N-[5-(aminosulfonyl)-4-methyl-1,3-thiazol-2-yl]-N-methyl-2-[4-(2-pyridinyl)phenyl]-acetamide. Thus, in accordance with the invention a decreased absorption rate and a delayed tmax of the resultant free base of N-[5-(aminosulfonyl)-4-methyl-1,3-thiazol-2-yl]-N-methyl-2-[4-(2-pyridinyl)phenyl]-acetamide may be expected in […] subjects after administration of crystalline mono mesylate monohydrate salt of N-[5-(aminosulfonyl)-4-methyl-1,3-thiazol-2-yl]-N-methyl-2-[4-(2-pyridinyl)phenyl]-acetamide.

[2] = Multiple-dose escalation, steady state pharmacokinetics in healthy volunteers; format: in vivo, human; settings: for Ctrough: free base in plasma; for AUC / Cmax: human, plasma, oral
Text: For three doses of the mono mesylate monohydrate salt of N-[5-(aminosulfonyl)-4-methyl-1,3-thiazol-2-yl]-N-methyl-2-[4-(2-pyridinyl)phenyl]acetamide in formulations in accordance with table a, wherein the particle size distribution is preferably defined by d(0.1) from 2 to 100 μm, d(0.5) from 30 to 210 μm and d(0.9) from 70 to 400 μm with a specific surface area of the particles less than 1.0 m^2/g, and more preferably defined by d(0.1) from 10 to 75 μm, d(0.5) from 100 to 175 μm, d(0.9) from 200 to 350 μm with a specific surface area of the particles less than 0.3 m^2/g, investigated (5, 25, and 100 mg as free base equivalent; once per day oral administration, […]), the individual concentration-time curves of the free base N-[5-(aminosulfonyl)-4-methyl-1,3-thiazol-2-yl]Nmethyl-2-[4-(2-pyridinyl)phenyl]acetamide at day 1 (after the first administration) were very similar in their general shape and slope to those profiles obtained in the single dose escalation trial (see Example a).
At steady state, there was a low inter-individual variability of minimal or “trough” concentrations with CVs (coefficient of variations) between 16.7 and 21.7% (day 21). For all doses, the individual and mean concentration-time curves of the free base of N-[5-(aminosulfonyl)-4-methyl-1,3-thiazol-2-yl]-N-methyl-2-[4-(2-pyridinyl)phenyl]acet-amide at day 21 were very similar in their shape and slope to those profiles obtained at day 1.
Table c: Steady state pharmacokinetic parameters of the free base N-[5-(aminosulfonyl)-4-methyl-1,3-thiazol-2-yl]-N-methyl-2-[4-(2-pyridinyl)phenyl]acetamide at day 21 after daily administrations of 5, 25, or 100 mg as free base equivalent of the mono mesylate monohydrate salt of N-[5-(aminosulfonyl)-4-methyl-1,3-thiazol-2-yl]-N-methyl-2-[4-(2-pyridinyl)phenyl]acetamide in formulations in accordance with table a, wherein the particle size distribution is preferably defined by d(0.1) from 2 to 100 μm, d(0.5) from 30 to 210 μm and d(0.9) from 70 to 400 μm with a specific surface area of the particles less than 1.0 m^2/g, and more preferably defined by d(0.1) from 10 to 75 μm, d(0.5) from 100 to 175 μm, d(0.9) from 200 to 350 μm with a specific surface area of the particles less than 0.3 m^2/g, to healthy volunteers (n=12 per dose).

[3] = as above; format: in vivo, human; settings: steady state after once daily single doses for 21 days
[4] = 5 mg free base equivalent once daily, day 21 steady state, healthy volunteers n=12
[5] = 25 mg free base equivalent once daily, day 21 steady state, healthy volunteers n=12
[6] = 100 mg free base equivalent once daily, day 21 steady state, healthy volunteers n=12

t1/2z with food intake prior to administration [1]: remains constant
increase in AUC with food intake prior to administration ([1]; HPLC, worded 'may lead to'): at least 10%
increase in mean Cmax with food intake prior to administration ([1]; HPLC, worded 'may lead to'): at least 25%
Cav [2, 4]: 213 ng/mL
t1/2z [2, 4]: 82.6 h
Ctrough [2, 4]: 187 ng/mL
t1/2z on average ([2]; 25 mg dosage as free base equivalent, steady state after once daily single doses for 21 days): 69 ± 6 h
Cav [2, 5]: 977 ng/mL
Cmax,ss [2, 5]: 1358 ng/mL
t1/2z [2, 5]: 68.6 h
AUCτ ([2]; 25 mg free base equivalent once daily, day 21 steady state, healthy volunteers n=12, dosing interval 24 hours): 23430 ng·h/mL
Ctrough [2, 5]: 832 ng/mL
Cav [2, 6]: 4540 ng/mL
Cmax,ss [2, 6]: 6358 ng/mL
t1/2z [2, 6]: 59.8 h
AUCτ ([2]; 100 mg free base equivalent once daily, day 21 steady state, healthy volunteers n=12, dosing interval 24 hours): 108800 ng·h/mL
Ctrough [2, 6]: 3743 ng/mL
t1/2z on average ([2]; 200 mg dosage as free base equivalent, steady state after once daily single doses for 21 days): 57.19 ± 5.451 h
dose dependence of AUC0-24h and Cmax at day 1 ([2]; 5, 25, 100 mg free base equivalent, after the first administration): dose-proportional increases
dose dependence of exposure at steady state (Ctrough, AUCτ, Cmax,ss, Cav) ([2]; 5, 25, 100 mg once daily): dose-proportional increase
accumulation ratio R for AUC and Cmax ([2]; all doses applied (5, 25, 100 mg once daily)): ~5
apparent total clearance (CL/F) ([2]; all doses investigated (5, 25, 100 mg once daily), steady state): 0.99 to 1.08 L/h
AUC ([2]; 200 mg, 100 mg dosage as free base equivalent, steady state after once daily single doses for 21 days, read-out: AUCτ,ss): 168000 ± 38000 ng·h/mL
AUC ([2]; 5 mg free base equivalent once daily, day 21 steady state, healthy volunteers n=12, dosing interval 24 hours, read-out: AUCτ): 5090 ng·h/mL
Cmax ([2]; 5 mg free base equivalent once daily, day 21 steady state, healthy volunteers n=12, read-out: Cmax,ss): 301 ng/mL
Cmax ([2]; 100 mg dosage as free base equivalent, steady state after once daily single doses for 21 days, read-out: mean maximum blood plasma concentration at steady state (mean Cmax,ss) of the free base): 6360 ± 1700 ng/mL
Cmax ([2]; 200 mg dosage as free base equivalent, steady state after once daily single doses for 21 days, read-out: mean maximum blood plasma concentration at steady state (mean Cmax,ss) of the free base): 9990 ± 2610 ng/mL
t1/2z on average ([3]; 100 mg dosage as free base equivalent): 60 ± 4 h
AUC ([3]; human, plasma, oral, 25 mg dosage as free base equivalent): 23400 ± 3020 ng·h/mL
Cmax ([3]; human, plasma, oral, 25 mg dosage as free base equivalent, read-out: mean maximum blood plasma concentration at steady state (mean Cmax,ss) of the free base): 1360 ± 167 ng/mL
AUC ([3]; human, plasma, oral, 100 mg dosage as free base equivalent): 109000 ± 28600 ng·h/mL
SMILES: CS(=O)(=O)O.Cc1nc(N(C)C(=O)Cc2ccc(-c3ccccn3)cc2)sc1S(N)(=O)=O [mono mesylate monohydrate salt, N-[5-(aminosulfonyl)-4-methyl-1,3-thiazol-2-yl]-N-methyl-2-[4-(2-pyridinyl)-phenyl]acetamide mono methanesulfonic acid monohydrate]

— patent US20150374676A1, “HELICASE-PRIMASE INHIBITORS FOR USE IN A METHOD OF TREATING ALZHEIMER'S DISEASE” (AICURIS GMBH & CO. KG, priority 2013, published 2015)
